The record followed here is patent publication US9695155B2, “Herbicidal substituted pyrimidinyloxy benzene compounds” (E. I. DU PONT DE NEMOURS AND COMPANY, priority 2013, dated 2017).

The test system of assay [1] is large (Lg) crabgrass. Put plainly: Test A preemergence. It counts as in vivo, Digitaria sanguinalis. To be noted: for pest or weed control at 125 g/ha / pest or weed control at 500 g/ha: Digitaria sanguinalis, pre-emergence, 240 h. Put shortly: (§1)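 Visual 0–100 rating (100 = complete control) taken about 10 d post-treatment relative to untreated checks. Preemergence: directed soil spray on sown loam/sand pots. Postemergence: seedlings 2–10 cm, 1–2 leaf. Non-phytotoxic solvent formulation with surfactant.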

Assay [2] has as its system wheat. Briefly: Test A postemergence. It counts as in vivo, Triticum aestivum. To be noted: for plant injury at 125 g/ha / plant injury at 500 g/ha: Triticum aestivum, post-emergence, 240 h; for plant injury at 125 g/ha: read-out: Plant response rating, Wheat; for plant injury at 500 g/ha: read-out: Plant response rating Wheat. Put shortly:
as §1

Assay [3] deals with barnyardgrass. Put plainly: Test A postemergence. Type of assay: in vivo, Echinochloa crus-galli. The following applies: for pest or weed control at 125 g/ha / pest or weed control at 500 g/ha: Echinochloa crus-galli, post-emergence, 240 h; for pest or weed control at 125 g/ha: read-out: Plant response rating, Barnyardgrass; for pest or weed control at 500 g/ha: read-out: Plant response rating Barnyardgrass. Put shortly: as §1

Assay [4] has as its system Heteranthera limosa. Briefly: Test B flooded paddy test. Type of assay: in vivo. The following applies: Flood, 250 g ai/ha, 0 to 100 scale where 0 is no effect and 100 is complete control; for pest or weed control at 250 g/ha: Heteranthera limosa, read-out: Plant response rating, Ducksalad. Put shortly: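 Plants at 2-leaf stage; pots flooded to 3 cm above soil and compound applied directly into paddy water, depth held throughout. After 13 to 15 days in greenhouse, visual rating versus controls on 0 (no effect) to 100 (complete control) scale.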

In assay [5] the test system is morningglory. Briefly: Test C preemergence. Type of assay: in vivo, Ipomoea coccinea. To be noted: Ipomoea, pre-emergence. The text has this:
(§2) Seeds of plant species selected from blackgrass (Alopecurus myosuroides), Italian ryegrass (Lolium multiflorum), wheat, winter (winter wheat, Triticum aestivum), galium (catchweed bedstraw, Galium aparine), corn (Zea mays), large (Lg) crabgrass (Digitaria sanguinalis), giant foxtail (Setaria faberii), johnsongrass (Sorghum halepense), lambsquarters (Chenopodium album), morningglory (Ipomoea coccinea), yellow nutsedge (Cyperus esculentus), pigweed (Amaranthus retroflexus), ragweed (common ragweed, Ambrosia elatior), soybean (Glycine max), barnyardgrass (Echinochloa crus-galli), oilseed rape (Brassica napus), waterhemp (common waterhemp, Amaranthus rudis), kochia (Kochia scoparia), wild oat (Avena fatua), surinam grass (Brachiaria decumbens), foxtail, green (green foxtail, Setaria viridis), goosegrass (Eleusine indica), bromegrass, downy (downy bromegrass, Bromus tectorum), nightshade (eastern black nightshade, Solanum ptycanthum), cocklebur (common cocklebur, Xanthium strumarium), cupgrass, woolly (woolly cupgrass, Eriochloa villosa), bermudagrass (Cynodon dactylon), sunflower, (common oilseed sunflower, Helianthus annuus), Russian thistle (Salsola kali), and velvetleaf (Abutilon theophrasti) were planted into a blend of loam soil and sand and treated preemergence with test chemicals formulated in a non-phytotoxic solvent mixture which included a surfactant.
(§3) At the same time, plants selected from these crop and weed species and also barley, winter (winter barley, Hordeum vulgare), windgrass (Apera spica-venti), chickweed (common chickweed, Stellaria media), deadnettle (henbit deadnettle, Lamium amplexicaule), and canarygrass (littleseed canarygrass, Phalaris minor) were planted in pots containing Redi-Earth® planting medium (Scotts Company, 14111 Scottslawn Road, Marysville, Ohio 43041) comprising spaghnum peat moss, vermiculite, wetting agent and starter nutrients and treated with postemergence applications of test chemicals formulated in the same manner. Plants ranged in height from 2 to 18 cm (1- to 4-leaf stage) for postemergence treatments. Treated plants and controls were maintained in a greenhouse for 13 to 15 days, after which time all species were compared to controls and visually evaluated. Plant response ratings, summarized in Table C, are based on a scale of 0 to 100 where 0 is no effect and 100 is complete control. A dash (-) response means no test result.

In assay [6] the test system is galium. Put plainly: Test C preemergence. It counts as in vivo, Galium aparine. To be noted: Galium, pre-emergence.
Text: as §2, §3

The test system of assay [7] is wheat, winter. Put plainly: Test C preemergence. Type of assay: in vivo, Triticum aestivum. The following applies: Triticum aestivum, pre-emergence.
Text: as §2, §3

Assay [8] concerns Italian ryegrass. Briefly: Test C preemergence. Type of assay: in vivo, Lolium multiflorum. The following applies: Lolium multiflorum, pre-emergence.
Text: as §2, §3

Assay [9] has as its system blackgrass. Put plainly: Test C preemergence. It counts as in vivo, Alopecurus myosuroides. To be noted: Alopecurus myosuroides, pre-emergence.
Text: as §2, §3

The test system of assay [10] is morningglory. Briefly: Test C postemergence. Type of assay: in vivo, Ipomoea coccinea. The following applies: for Plant response rating, Morningglory / Morningglory plant response rating: scale 0 to 100 (0 no effect, 100 complete control); for Morningglory plant response rating: 31 g ai/ha.
Text: as §2, §3

The mark [11] stands for this setting: 500 g ai/ha, 0 to 100 scale, 0 no effect, 100 complete control, approx. 10 days, read-out: Crabgrass, Large plant response rating.
The mark [12] stands for this setting: 125 g ai/ha, 0 to 100 scale where 0 is no effect and 100 is complete control.
The mark [13] stands for this setting: 500 g ai/ha, 0 to 100 scale, 0 no effect, 100 complete control.
The mark [14] stands for this setting: 31 g ai/ha, 0 to 100 scale, 0 no effect, 100 complete control.
Setting [15] is: 16 g ai/ha, postemergence, 0 is no effect, 100 is complete control.
Setting [16] is: 125 g ai/ha, postemergence, visual rating.
Where [17] appears, read: 1000 g ai/ha, 0 to 100 scale, 0 no effect, 100 complete control.
The mark [18] stands for this setting: postemergence, visual rating, 13 to 15 days.
The mark [19] stands for this setting: 125 g ai/ha, 0 to 100 scale, 0 no effect, 100 complete control.
Setting [20] is: 500 g ai/ha, 0 to 100 scale where 0 is no effect and 100 is complete control.

Like-named read-outs stand apart in the source and are kept apart here.

`FC(F)(F)c1ccn(-c2ccccc2Oc2ncc(Cl)cn2)n1` [Compound 2, 5-chloro-2-[2-[3-(trifluoromethyl)-1H-pyrazol-1-yl]phenoxy]pyrimidine]: the pest or weed control at 125 g/ha in [1] (125 g ai/ha, 0 to 100 scale where 0 is no effect and 100 is complete control, read-out: Crabgrass, Large plant response rating) amounted to 80%; in assay [3] (setting [12]) it was 30%. The pest or weed control at 500 g/ha in assay [1] (setting [11]) amounted to 100%; in assay [3] (setting [13]), 70%. Besides, in [2] (setting [12]), the plant injury at 125 g/ha came out at 0%. For the same compound, the plant injury at 500 g/ha in assay [2] (setting [13]) is 0%. The pest or weed control at 250 g/ha in assay [4] amounted to 45%.

For `Clc1cnc(Oc2ccccc2-n2cc(Cl)cn2)nc1` [Compound 3], the “Crabgrass, Large plant response rating” value in assay [1] (setting [12]) is 90; in [1] (500 g ai/ha, 0 to 100 scale, 0 no effect, 100 complete control, approx. 10 days) it was 100. The “Plant response rating, Wheat” value in assay [2] (setting [12]) and in [2] (setting [13]) was 0 throughout. In addition, the “Plant response rating, Barnyardgrass” value is 10 in assay [3] (setting [12]) and 90 in assay [3] (setting [13]). Besides, the “Plant response rating, Ducksalad” value in assay [4] is reported as 90.

As for `FC(F)(F)c1cnn(-c2ccccc2Oc2ncc(Br)cn2)c1` [Compound 18, 5-bromo-2-[2-[4-(trifluoromethyl)-1H-pyrazol-1-yl]phenoxy]pyrimidine], the pest or weed control at 125 g/ha in assay [1] (125 g ai/ha, 0 to 100 scale where 0 is no effect and 100 is complete control, read-out: Plant response rating, Crabgrass, Large) turned out to be 100%; in assay [5] (125 g ai/ha, preemergence, scale 0 (no effect) to 100 (complete control), read-out: Morningglory plant response rating), 80%; in assay [6] (125 g ai/ha, preemergence, scale 0 (no effect) to 100 (complete control), read-out: Galium plant response rating), 100%; in assay [3] (setting [12]), 60%; in assay [8] (125 g ai/ha, preemergence, scale 0 (no effect) to 100 (complete control), read-out: Ryegrass, Italian plant response rating), 45%; in assay [9] (125 g ai/ha, preemergence, scale 0 (no effect) to 100 (complete control), read-out: Blackgrass plant response rating), 90%. The pest or weed control at 500 g/ha in assay [1] (setting [11]) and in assay [3] (setting [13]) was 100% each time. Moreover, the plant injury at 125 g/ha in assay [2] (setting [12]) worked out at 50%; in assay [7] (125 g ai/ha, preemergence, scale 0 (no effect) to 100 (complete control), read-out: Wheat plant response rating) it was 35%. Further, in assay [2] (setting [13]), the plant injury at 500 g/ha was determined as 50%. Further, the pest or weed control at 62 g/ha is 30% in [5] (62 g ai/ha, preemergence, scale 0 (no effect) to 100 (complete control), read-out: Morningglory plant response rating); 95% in [6] (62 g ai/ha, preemergence, scale 0 (no effect) to 100 (complete control), read-out: Galium plant response rating); 5% in assay [8] (62 g ai/ha, preemergence, scale 0 (no effect) to 100 (complete control), read-out: Ryegrass, Italian plant response rating); 80% in assay [9] (62 g ai/ha, preemergence, scale 0 (no effect) to 100 (complete control), read-out: Blackgrass plant response rating). Further, the pest or weed control at 250 g/ha in assay [5] (250 g ai/ha, preemergence, scale 0 (no effect) to 100 (complete control), read-out: Morningglory plant response rating) came to 98%; in [6] (250 g ai/ha, preemergence, scale 0 (no effect) to 100 (complete control), read-out: Galium plant response rating), 100%; in assay [4], 90%; in assay [8] (250 g ai/ha, preemergence, scale 0 (no effect) to 100 (complete control), read-out: Ryegrass, Italian plant response rating), 85%; in assay [9] (250 g ai/ha, preemergence, scale 0 (no effect) to 100 (complete control), read-out: Blackgrass plant response rating), 90%. For the same compound, the pest or weed control at 31 g/ha in assay [5] (Preemergence, 31 g ai/ha, scale 0 to 100, 0 no effect, 100 complete control, read-out: Plant response rating, Morningglory) was 10%; in assay [6] (Preemergence, 31 g ai/ha, scale 0 to 100, 0 no effect, 100 complete control, read-out: Plant response rating, Galium), 90%; in [8] (Preemergence, 31 g ai/ha, scale 0 to 100, 0 no effect, 100 complete control, read-out: Plant response rating, Ryegrass, Italian) it was 0%; in assay [9] (Preemergence, 31 g ai/ha, scale 0 to 100, 0 no effect, 100 complete control, read-out: Plant response rating, Blackgrass), 10%. Moreover, in [7] (62 g ai/ha, preemergence, scale 0 (no effect) to 100 (complete control), read-out: Wheat plant response rating), the plant injury at 62 g/ha is 5%. Moreover, the plant injury at 250 g/ha in assay [7] (250 g ai/ha, preemergence, scale 0 (no effect) to 100 (complete control), read-out: Wheat plant response rating) worked out at 35%. The plant injury at 31 g/ha in [7] (Preemergence, 31 g ai/ha, scale 0 to 100, 0 no effect, 100 complete control, read-out: Plant response rating, Wheat) was found to be 0%.

For the compound `FCc1cccc(Oc2ncc(Br)cn2)c1-n1cc(C(F)(F)F)cn1` [Compound 120], the “Plant response rating, Wheat” value in assay [2] (setting [14]) was found to be 0. Besides, the figures for the “Plant response rating, Barnyardgrass” value in [3] (setting [14]) and in assay [3] (setting [12]) were 20 and 80, respectively. Also, the “Plant response rating (0 to 100), Morningglory” value in assay [10] (setting [15]) worked out at 20. Moreover, the “Plant response rating, Morningglory” value in assay [10] (setting [16]) is 80; in assay [10] (Postemergence, 62 g ai/ha), 35. In assay [4], the “Plant response rating, Ducksalad” value is on record as 95.

For the compound `Fc1cccc(Oc2ncc(Cl)cn2)c1-n1cc(C2CC2)nn1` [Compound 155], the “Plant response rating, Wheat” value in assay [2] (setting [17]) came to 90. In addition, the “Plant response rating, Barnyardgrass” value in [3] (setting [17]) came to 100. Also, in assay [10] (setting [15]), the “Plant response rating (0 to 100), Morningglory” value came out at 70. Further, the “Morningglory plant response rating” value in [10] (setting [18]) turned out to be 80. Besides, the “Plant response rating, Morningglory” value in assay [10] (setting [16]) was determined as 85; in assay [10] (Postemergence, 62 g ai/ha), 80. The “Plant response rating, Ducksalad” value in assay [4] turned out to be 100.

In the case of `N#Cc1cccc(Oc2ncc(Cl)cn2)c1-n1cc(-n2ccc(C(F)(F)F)n2)cn1` [Compound 284], the “Plant response rating, Wheat” value in assay [2] (setting [19]) and in assay [2] (setting [20]) was 20 in each case. Moreover, the “Plant response rating, Barnyardgrass” value is 30 in assay [3] (setting [19]) and 90 in [3] (setting [20]). Besides, the “Morningglory plant response rating” value in assay [10] (setting [18]) stood at 70. The “Plant response rating, Morningglory” value worked out at 85 in [10] (setting [16]) and 100 in assay [10] (Postemergence, 62 g ai/ha, 13 to 15 days). Also, the “Plant response rating (0 to 100), Morningglory” value in [10] (250 g ai/ha, postemergence) was found to be 100. The “Plant response rating, Ducksalad” value in assay [4] came to 80.
